Laboratory results published in ChEMBL document CHEMBL4028825, “Pharmacological evaluation of a novel series of urea, thiourea and guanidine derivatives as P2X7 receptor antagonists” (Bioorg Med Chem Lett, 2017).
pIC50: −log10 of the molar value.

The molecules below were run against T1, P2X purinoceptor 7 (Homo sapiens, UniProt Q99572) (assay: Antagonist activity at P2X7 receptor in human THP1 cells assessed as inhibition of BzATP-induced YO-PRO-1 Iodide uptake measured every 30 secs for 1 hr by fluorescence assay). Conditions: not given.
T1 sequence (Q99572 whole entry): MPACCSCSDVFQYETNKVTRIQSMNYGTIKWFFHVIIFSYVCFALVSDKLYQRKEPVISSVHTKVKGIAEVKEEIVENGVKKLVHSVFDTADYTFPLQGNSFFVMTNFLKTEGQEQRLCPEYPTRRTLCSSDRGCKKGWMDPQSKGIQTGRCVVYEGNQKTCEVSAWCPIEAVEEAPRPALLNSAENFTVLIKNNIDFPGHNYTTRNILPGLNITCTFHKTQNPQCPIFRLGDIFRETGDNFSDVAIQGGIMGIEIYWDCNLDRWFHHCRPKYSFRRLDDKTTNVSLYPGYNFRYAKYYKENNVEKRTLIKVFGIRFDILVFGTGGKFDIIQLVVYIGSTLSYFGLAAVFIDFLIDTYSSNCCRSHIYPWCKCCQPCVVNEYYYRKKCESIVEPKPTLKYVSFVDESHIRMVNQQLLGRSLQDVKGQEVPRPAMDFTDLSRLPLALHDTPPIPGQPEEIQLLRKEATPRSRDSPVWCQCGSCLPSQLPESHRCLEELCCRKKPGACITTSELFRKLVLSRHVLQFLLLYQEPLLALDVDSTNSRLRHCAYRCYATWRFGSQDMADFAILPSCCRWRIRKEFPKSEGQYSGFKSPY
Assay type: cell-based

SMILES | IC50
N=C(NCC12CC3CC(CC(C3)C1)C2)Nc1ccccc1 | Nd(Insoluble)

Same assay, conditions: read-out: IC50

SMILES | pIC50
O=C(NCC12CC3CC(CC(C3)C1)C2)Nc1ccccc1 | 5.30
O=C(NCc1ccncc1)NCC12CC3CC(CC(C3)C1)C2 | 5.17
S=C(NCC12CC3CC(CC(C3)C1)C2)Nc1ccccc1 | 5.62
O=C(NCCc1ccccc1)NCC12CC3CC(CC(C3)C1)C2 | 5.19
O=C(NCc1cccnc1)NCC12CC3CC(CC(C3)C1)C2 | 5.47
N=C(NCc1ccccc1)NCC12CC3CC(CC(C3)C1)C2 | < 5.00
O=C(NCc1ccccc1)NCC12CC3CC(CC(C3)C1)C2 | 5.34
O=C(NCc1ccccn1)NCC12CC3CC(CC(C3)C1)C2 | 5.23
S=C(NCc1ccccc1)NCC12CC3CC(CC(C3)C1)C2 | 5.37
